Results on one compound are retold here after US20250339409A1, “USES OF PAN BET INHIBITORS” (VYNE THERAPEUTICS INC., priority 2021, published 2025).

This test concerns anti collagen antibodies induced arthritis (ACAIA). Put plainly: ACAIA mice: histopathology of hind paws (tarsus).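 On all read-outs here: Mid-sagittal H&E-stained sections of mouse tarsus taken at study end, lesion severity graded from 0 (normal) to 4 (severe).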 The class given is in vivo, Balb/c mice. Further details: key to Histology: Score / Histology: Score, MEAN: 0 = within normal limits, 1 minimal, 2 mild, 3 moderate, 4 severe. As to conditions: 1 mg/kg IA (Group 7); for Histology: Score, MEAN: group mean; for Histology: Bones / Histology: Cartilage / Histology: Joint space / Histology: Score / Histology: Soft tissue: individual animals.

“And” between values parts separate entries of the source, which are not always exact repeats. Identical values can stand only once.

Excerpt: At the end of the study, the mice are euthanized using pentobarbital sodium injection. Once euthanized, one hind paw of each animal is harvested and collected into vials containing 4% formalin for histology analysis.
The samples are sagittal sections of the right and left murine tarsus. The histology scoring is based on the severity of the lesions, taking into account both the number of infiltrating cells and the extent of cartilage and bone damage. To be classified as severe, a lesion has to show bone and cartilage damage (beyond degeneration for the latter). The scores are 0=within normal limits, 1-minimal, 2-mild, 3-moderate, 4-severe.
Statistics and data evaluation are primarily based on the mean values for body weight, arthritis clinical scoring and paw thickness measurements. Where appropriate, analysis of the data by one-way ANOVA followed by Dunnett's post-test is applied to determine the significance of treatment effects. All data for the histopathological analysis is presented as Mean±SEM. The treatment groups are compared to the Vehicle group (Group 1) or the contralateral hind paw using the Student's T-test. A p-value <0.05 is considered to represent a significant difference.
Histopathological analysis was conducted in accordance with Method B. Tissues from groups 1, 2, 3 and 7 were processed. Following decalcification, the tissues were cut mid-sagitally and were processed and sectioned for H & E staining. The histopathological analysis included an examination of the number of infiltrating cells and the extent of cartilage and bone damage.

For `C[C@@H]1C[C@H]2[C@@H]3CCC4=CC(=O)C=C[C@]4(C)[C@@]3(F)[C@@H](O)C[C@]2(C)[C@@]1(O)C(=O)CO` [dexamethasone, Dexamethasone, reference compound], under “L paw (injected)”, the “Histology: Score, MEAN” value is on record as 2.93; the “Histology: Bones” value was 4 (2×) and 0 and 3 (3×) and 2.5; the “Histology: Cartilage” value is 4 (2×) and 0 and 3 (2×) and 2.5 (2×); the “Histology: Joint space” value was 4 (6×) and 0. Under “L paw (injected)”, the “Histology: Score” value is 4 (2×) and 1 and 3 (3×) and 2.5; the “Histology: Soft tissue” value is 4 (2×) and 1.5 and 2 (2×) and 3 and 2.5. Under “R paw (contralateral)”, the “Histology: Score, MEAN” value stood at 2.29; the “Histology: Bones” value was 0 (3×) and 4 (4×); the “Histology: Cartilage” value was 0 (3×) and 4 (4×); the “Histology: Joint space” value is 0 (3×) and 4 (4×). In addition, under “R paw (contralateral)”, the “Histology: Score” value was 0 (3×) and 4 (4×); the “Histology: Soft tissue” value was 0 (3×) and 4 (4×).
